Test results as given in patent publication US20140100183A1, “CENTRAL ADMINISTRATION OF STABLE FORMULATIONS OF THERAPEUTIC AGENTS FOR CNS CONDITIONS” (The Regents of the University of Colorado, a body corporate, priority 2006, published 2014).
Several values for one entry are separate records, joined by “and”; a condition that tells them apart may be missing. Equal entries are not always repeated. Where two headings read alike, the source gives them in different places.

How the values were obtained:
[1] = test system: pentylenetetrazole (PTZ) seizure induction in rats; assay: Pentylenetetrazole (PTZ) seizure induction model, ICV administration; format: in vivo, rat; settings: for % Change: drug group vs vehicle group (-V); for Rodent ICV dose: effective daily dose, blocking seizures; for Efficacy: effective in blocking seizures
Description: Rats are anesthetized, placed in a stereotaxic instrument and a burr hole opened over one anterior lateral ventricle. A cannula is lowered to the ventricle and 5 μl of solution containing the drug is injected into the ventricle over 10 minutes. The incision is then closed and the animal allowed to regain consciousness and remain conscious for 10 minutes. After 10 minutes has elapsed, pentylenetetrazole (PTZ, 10 mg/ml in saline) is injected through a tail-vein catheter at a constant rate of infusion (1 ml/min, Razel syringe pump) until a motor seizure is induced. PTZ seizures are identified as myoclonic jerking followed by clonus and tonus. The time from the initial application of PTZ to the first clonic seizure (i.e., forelimb clonus) is measured and defined as “latency to seiqure onset”. The total amount of PTZ infused is calculated and then divided by each rat;s body weight to obtain the dose (mg/kg) of PTZ. The dose required to attain status epilepticus is compared to the PTZ dose without antiseizure medication.

[2] = test system: anxiety in rats (elevated plus maze, open field); assay: Elevated plus maze and open field conflicts test after ICV antidepressants; format: in vivo, rat; settings: elevated plus maze and open field conflicts test
Description: Various antidepressants were injected via ICV, and animals monitored in standard elevated plus maze and open field conflicts test.
Rats are placed in the center of a pluz-shaped maze. The arms are 13 cm wide; two arms were open and two are enclosed by 32 cm high walls. The maze is elevated off the flor by 51 cm. The percent of time and distance traveled in each type of arm over the 4 minute test period is calculated by computer. Increased time and distance traveled in the open arms is thought to reflect anxiolytic activity.
Rats are place against 1 side of a 104 cm square box with 32 cm sides. The activity of the rat is monitored by computer over a 4 minute testing period. A computer divides the openfied space into 25 equal squares arranged into an outer:ring” of 16 squares, a middle region of 8 squares and a central square. The percent of time and distarnce traveled in the center square by rats receiving the drug are calculated and compared to rats receiving a saline control. Increased time and distance traveled in the center square is thought to reflect anxiolytic activity.

[3] = test system: animals; assay: Behavioral toxicology: openfield, elevated plus, ataxia; format: in vivo
Description: Several animal models as described below were used to determine the efficacy of formulations containing different concentrations of the drug. The animals were also tested for toxic effects as described in the table, below.
All animals are assessed for ataxia, which is a measure of altered gate and ability to change body position. They are also placed on their acks and time to “righting” measured.

[4] = test system: human; settings: cited from earlier work
[5] = test system: sensory inhibition deficits in DBA/2 mice; assay: Sensory inhibition (paired auditory stimuli, TC ratio) after acute ICV administration; format: in vivo, mouse; settings: for conditioning amplitude / test amplitude: vs baseline; for Rodent ICV dose: effective daily dose, mice
Description: The following methods were used to record the sensory inhibition.
The deficit in sensory inhibition can be quantified using the paired stimulus paradigm in which 2 identical stimuli are delivered 0.5 seconds apart and the electrophysiological response to each is recorded. In normal individuals, the response to the second, or test, stimulus, occurring 50 msec after stimulus onset, is reduced compared to the response to the first, or conditioning stimulus. However, schizophrenia patients have similar magnitude responses to both stimuli: The “TC ratio” is calculated by dividing the test amplitude by the conditioning amplitude. […] In normal individuals, the TC ratio is generally less than 0.4 while schizophrenia patients commonly have TC ratios above 0.5 and often approaching or exceeding 1.0.
In the present study, briefly, 5 baseline records were obtained in response to the paired auditory stimuli, prior to drug administration. […] Recordings were obtained at 5 minute intervals for 90 minutes post injection. Data analyzed included the amplitude of the response to the first stimulus (conditioning amplitude), amplitude of the response to the second stimulus (test amplitude) and the TC ratio (test amplitude/conditioning amplitude). This final parameter gives a measure of the level of inhibition in the circuit initiated by the conditioning stimulus. […] DBA/2 mice routinely have TC ratios of ≧0.8.

[6] = test system: sensory inhibition deficits in DBA/2 mice; assay: Chronic ICV clozapine (7 day minipump), sensory inhibition; format: in vivo, mouse; settings: 0.25 μl/hr for 7 days
Description: DBA/2 mice are implanted with a chronic indwelling cannula aimed at one anterior lateral ventricle (Alzet Brain Infusion system) which is connected to an osmotic minipump delivering 0.25 μl/hr for 7 days. On the 7th day, the mouse is anesthetized, placed in a stereotaxic instrument, a burr hole opened in the skull over the contralateral dorsal hippocampus and a recording electrode lowered to the CA3 region of the hippocampus. Evoked EEG responses to closely paired (0.5 msec apart) identical tones are recorded.

[7] = test system: prenatally stressed Sprague Dawley rats; assay: Chronic ICV clozapine by osmotic minipump in schizophrenia model (Example 3); format: in vivo, rat
Description: After 1 week recovery from surgery, at least 10 baseline recording sessions are performed in which 30 pairs of identical auditory click stimuli are presented and the evoked potentials are recorded and averaged. This establishes the baseline parameters for sensory inhibition in the rats.
Formulations described above are administered into the ventricles using an osmotic minipump to deliver 0.5 μl/hr for 14 days. The rats have a chronic recording electrode implant that allows repeated awake recording over several days and a ventricular cannula to permit withdrawal of CSF. Sensory inhibition is recorded on alternate days for the 14 days of the pump duration. At the end of each recording session, blood and CSF are sampled under light anesthesia to assess levels of the active agent. Brain penetration and distribution are assessed using tritiated active agent/excipient complex in the osmotic minipump in a separate group of animals. […] A rat model of deficient sensory inhibition is used which allows us to sample both fluids repeatedly over several days.
Two days later, alternate day recording of sensory inhibition begins and continues for the full 14 days of the pump. […] Data are analyzed by analysis of variance and appropriate a posteriori analyses performed wherever significant differences are found (p<0.05).

[8] = for prevention of precipitation on titration: even at very alkaline pH (≈11)
[9] = test system: rats
Source text: At necropsy, blood is collected via cardiac puncture and placed in Na-EDTA anticoagulant or serum-separator tubes (SST). Anticoagulant blood is used to generate complete blood counts (CBCs). SST blood is spun down and serum collected to generate biochemical profiles CSF is collected via a cisterna magna puncture.
Tissues collected at necropsy for histopathology analysis include brain, skeletal muscle, eye, liver and kidney, and are preserved in 10% neutral-buffered formalin (5:1 formalin to tissue) for a minimum of 48 hours prior to processing. Tissues are processed for routine light microscopic analysis. Briefly, tissues are dehydrated, imbedded in wax, cut into 8 μm sections and mounted on slides, re-hydrated, and hematoxylin/eosin stained (H&E).
Biochemical and CBC values are pooled by treatment group and means compared to sham control group values using paired t-tests. Histopathology samples are assigned a point value based on the degree of necrosis, inflammatory cell infiltrate, and fibrosis. Scores for each are summed by group and compared to sham control tissues.
Tissues from euthanized animals are collected and drug levels quantitated as follows: Tissues are recovered, place in an Eppendorf tube and weighed. […] Digests are then mixed with scintillation fluid (Scinti-safe, Fisher Scientific, 50:50 v/v) and counts quantitated utilizing a Beckman model LS 6500 scintillation counter. […]

[10] = cited from earlier work
[11] = test system: schizophrenia patients; settings: Iqbal et al. 2003; cited from earlier work
[12] = test system: primary mouse cortical neuron cultures; assay: Toxicity in primary mouse cortical neuron cultures (MTT)
Description: In addition, a preliminary assessment of the toxicity of cyclodextrin in primary mouse cortical neuron cultures was performed. […] After dissection, and cellular dissociation, the cells were washed with Dulbecco's Modified Eagle's Medium with 10% fetal bovine serum. Following recentrifugation, the cells resuspended in plating medium, counted with trypan blue and plated at a constant density of 6.5×10^4 cells per well in a 96-well pre-coated plate. […] The cultures were maintained at 37° C. in a humidified atmosphere of 5% CO2. […] The cultures were incubated and cell toxicity assayed at 24, 48 and 72 hours. Viability was assessed by the MTT (3-(4,5 diethylthiazol-2-yl)-2,5)diphenyltetrazolium bromide) assay, CellTiter 96 Non-radioactive cell Proliferation Assay (Promega, Madison Wis.) and by visual examination.

[13] = test system: patients diagnosed with epilepsy disorders; assay: ICV or cisterna magna treatment of epilepsy (Example 6); format: in vivo, human; settings: central administration, 0.01 to 0.1 mg per hour, 1 week
Source text: After 1 week of treatment, epileptic frequency is reduced.

[14] = qualitative, solvents as given in the source; cited from earlier work
[15] = human dose is IV not oral for this drug
[16] = rodent ICV dose vs human oral equivalent

In the case of `Nc1ncnc2c1ncn2[C@@H]1O[C@H](CO)[C@@H](O)[C@H]1O` [Adenosine], the “% Change” value [1] is reported as 90%, the “Rodent ICV dose” value [1] is reported as 0.001336 mg/kg and the Efficacy [1] is reported as “effective in blocking”. For the same compound, the “% of Oral dose” value [1, 15] was 1.3%, the “efficacy following ICV administration” value [2] was “efficacy” and the Highest non-toxic concentration ([3]; rat, in vivo) was 0.0694 mg/mL. For the same compound, the Human oral equivalent [4, 15] was 0.1 mg/kg.
In the case of `CN1CCN(C2=Nc3cc(Cl)ccc3Nc3ccccc32)CC1` [Clozapine, 8-chloro-11-(4-methyl-1-piperazinyl)-5H-dibenzo [b,e][1,4] diazepine], the conditioning amplitude ([5]; 0.5 μg ICV) is reported as “increases in conditioning amplitude, though the latter did not reach statistical significance”, the test amplitude ([5]; 0.5 μg ICV) is reported as “decreases in test amplitude” and the “time post injection with significantly reduced test amplitudes” value ([5]; 1.0 μg ICV) is reported as 35 min. The conditioning amplitude ([5]; 1.0 μg ICV) was “significantly increased conditioning amplitudes”, the test amplitude ([5]; 1.0 μg ICV) was “significantly reduced test amplitudes” and the Efficacy ([5]; acute effective dose for improvement of sensory inhibition deficits in mice) was “acute effective”. The “Rodent ICV dose” value [5] was 0.040 mg/kg, the “Rodent ICV dose” value ([5]; listed as clozapine) was “about 0.040 mg/kg” and the “% of Oral dose” value [5, 16] was 0.5%. For the same compound, the “ICV dose lower than systemically administered dose” value ([5]; same mouse model, vs Simosky et al 2002) was greater than 1000 fold, the “response to the second tone” value [6] was “significant decreases in the response to the second tone” and the Highest non-toxic concentration ([3]; rat, in vivo) was 50 mg/mL. For the same compound, the plasma levels ([7]; 0.5 μl/hr for 14 days, steady state) was “extremely low or not detectable”, the sensory inhibition ([7]; 14 days) was “improvement in sensory inhibition” and the “pH until which addition of NaOH has little effect on solubility” value ([8]; acidified with HCl, no solubility enhancing agent) was roughly 6.5. The “prevention of precipitation on titration” value ([8]; cyclodextrin) was “prevented clozapine precipitation”, the “pH up to which precipitation is inhibited” value ([8]; cyclodextrin-to-clozapine molar ratio of 2:1) was no more than 9.0 and the “prevention of precipitation on titration” value ([8]; octyl glucoside) was “prevented clozapine precipitation”. The “prevention of precipitation on titration above neutral pH” value ([8]; polyethylene glycol (PEG 4000)) was “not able to prevent clozapine precipitation”, the “prevention of precipitation on titration above neutral pH” value ([8]; polyvinylpyrrolidone (PVP 10K)) was “not able to prevent clozapine precipitation” and the “accumulation of drug in peripheral tissues and organs” value ([9]; chronic ICV versus intraperitoneal (IP)) was “significantly less accumulation of drug in peripheral tissues and organs”. For the same compound, the “CNS pathology and systemic toxicity” value ([9]; rat, in vivo) was “minimal or no CNS pathology and low systemic toxicity”, the partition coefficient ([10]; acidic conditions, pH 2) was 0.4 and the Solubility in water [10] was “practically insoluble”. For the same compound, the octanol-to-water partition coefficient ([10]; pH 7.4 (Merck Index, 2004)) was 1000, the Human oral equivalent ([4]; effective daily dose, oral) was 7.5 mg/kg and the “patients who discontinue due to systemic side effects” value [11] was 17%. The Highest non-toxic concentration ([12]; In vitro primary cortical cell culture) was 10 µg/mL and the “final concentration at which significant toxicity was observed” value ([12]; clozapine formulated with cyclodextrin) was ≥ 10 μg/mL and ≥ 30 μM.
With `NC(=O)OCC(COC(N)=O)c1ccccc1` [Felbamate, 2-phenyl-1,3-propanediol dicarbamate] the “% Change” value [1] was 60%, the “Rodent ICV dose” value [1] was 0.08242 mg/kg and the “Rodent ICV dose” value ([1]; listed as felbamate) was “about 0.08242 mg/kg”. For the same compound, the Efficacy [1] was “effective in blocking”, the “% of Oral dose” value [1, 16] was 0.4% and the Highest non-toxic concentration ([3]; Behavioral: openfield, elevated plus, ataxia) was 0.056 mg/mL. For the same compound, the alleviation of seizures [13] was “efficacious therapeutic alleviation of seizures”, the Human oral equivalent ([4]; effective daily dose, oral) was 20 mg/kg and the “Comments: solubility” value [14] was “Freely soluble in water and in alcohol; soluble in acetone; insoluble in ether and in benzene”.
